From patent US10456409B2 (priority 2016, dated 2019)
Where two headings read alike, the source gives them in different places.

Columns and labels:
Assay type in all cases: cell-based, mouse
[1] = system: bone marrow stromal cells (BMSC), first passage (P1); test: Alkaline phosphatase assay (NBT/BCIP staining) of primary BMSC (P1) in osteogenic media; conditions: primary BMSC P1, four days in osteogenic media; ATO 10 μM, Cholecalciferol 10 μM, Lovastatin 1 μM, NP101 diluted 1:1 or 1:10 (FIG. 1)
Experimental: (§1) Mesenchymal stem cells isolation: Bone marrow stromal cells were isolated from six to eight weeks old wild type mice. Femurs and tibias were dissected from surrounding tissues. The epiphyseal growth plates were removed and the marrow was collected by flushing with modified essential medium (MEM) containing 100 U/ml Penicillin, 100 μg/ml streptomycin and 10% fetal bovine serum with a 25 G needle. Single cell suspensions were prepared by passing the cell clumps through an 18G needle followed by filtration through a 70-μm cell strainer.
(§2) After cells reached confluence, medium was replaced with osteogenic differentiation medium (OM). Osteogenic differentiation medium (OM) consists of: DMEM, 10% FBS, Pen-Strep (1×), L-Glutamine (2 mM), 10 mM beta glycerol phosphate and 50 μg/ml ascorbic acid. Duplicate wells were exposed to differentiation media without any agent (control), single agent (Cholecalciferol, ATO or Lovastatin) or Nosto-101 combination agents. Media replacement occurred every 2-3 days with fresh differentiation medium (made each time during feeding) with or without single agent or Nosto-101.
(§3) Alkaline phosphatase assay: Cells were stained after 4 days exposure in OM differentiation medium for Alkaline Phosphatase (AP) assay. This is a colorimetric assay in which NBT (nitro-blue tetrazolium chloride) and BCIP (5-Bromo-4-chloro-3′-indolyphosphate p-toluidine salt) yields insoluble purple precipitate when reacted with alkaline phosphatase enzyme.
After 4 days of culturing cells in OM media, cells were fixed with 4% paraformaldehyde and then washed once with PBS. One ml of One-step NBT/BCIP staining solution (Thermo Fisher) was added per well and the cells were then incubated in the dark for 30 min to 1 h and checked for color development. The reaction was quickly stopped by removing NBT/BCIP and adding water.

[2] = system: BMSC cells primed for osteogenesis; conditions: BMSC primed with LCN2 and PRL, then osteogenic media with agent; ATO 10 μM, Cholecalciferol 10 μM, Lovastatin 1 μM, NP101 diluted 1:1 or 1:10 (FIG. 2)
Experimental: as §1
Priming cells for osteogenseis: An aliquot of cells was diluted 1:1 with 0.04% trypan blue in PBS and viable cells were plated at a density of 2×10^6 cells/cm^2 and in a 35-mm culture dish and exposed to recombinant mouse Prolactin (PRL) (1 ng/ml) and/or Lacritin 2(LCN2) (18 ng/ml) in Alpha MEM media with 20% FBS, L-Glutamine 2 mM and Pen-Strep (1×) for three passages to prime cells for osteogenesis. After the third passage, 50,000 bone marrow stromal cells per well were plated in a 24 well plate in Alpha MEM 20% FBS, L-Glutamine (4 mM), PenStrep (1×) and MEM Non-Essential Amino Acids (1×).
as §2
as §3, with “enzyme. […]” for “enzyme.”

[3] = system: Alkaline Phosphatase gene expression in BMSC culture; conditions: four days in OM media, control = 1.00
Experimental: as §1, §2
qRT-PCR: Total RNA was isolated first with Trizol (Invitrogen) and then with RNeasy Kit (Qiagen). First strand cDNA was generated using a High capacity cDNA reverse transcriptase kit (Abcam). qPCR was performed using a Biorad cycler at 40 cycles of 95° C. for 5 seconds and at 60° C. for 30 seconds. PCR product was detected using SybrGreen (BioRad). Primers used for amplifications were Actin: Forward 5′-CACAGCTTCTTTGCAGCTCCT-3′ (SEQ ID NO:1), Reverse 5′-CGT CAT CCA TGG CGA ACT G-3′ (SEQ ID NO:2); Alk Phos: Forward 5′-CACGCGATGCAACACTCAGG-3′ (SEQ ID NO:3), Reverse 5′-GCATGTCCCCGGGCTCAAAGA-3′ (SEQ ID NO:4).

Row | Compound | alkaline phosphatase activity (number of blue colored cells) [1] | ALP activity (presence of bluish/purple cells) [2] | ALP gene expression fold change ([3]; 10 μm agent) | ALP gene expression fold change ([3]; 1 μm agent)
1 | C=C1CC[C@H](O)C/C1=C/C=C1\CCC[C@]2(C)[C@@H]([C@H](C)CCCC(C)C)CC[C@@H]12 [Cholecalciferol] | decreases | clearly diminish ALP activity | 0.350 ± 0.02 fold | 
2 | CC[C@H](C)C(=O)O[C@H]1C[C@@H](C)C=C2C=C[C@H](C)[C@H](CC[C@@H]3C[C@@H](O)CC(=O)O3)[C@H]21 [Lovastatin] | decreases | clearly diminish ALP activity |  | 0.316 ± 0.02 fold
3 | Arsenic trioxide [ATO] | decreases | clearly diminish ALP activity | 0.105 ± 0.01 fold | 
